Test results from patent US6737383B1, “Herbicidal oxadiazolidines” (priority 1999, dated 2004).

What was measured:
rape = experiment: Test B pre/postemergence rape; type: in vivo, Brassica napus
Summary of the method: (§1)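 Response is a visual 0-to-10 score relative to untreated plants, where 0 means no effect and 10 means complete control, taken twelve to sixteen days after application. Treatments went onto soil at planting and onto foliage of 1- to 4-leaf plants, using a surfactant-containing non-phytotoxic solvent.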

rice = experiment: Test B flood test rice; type: in vivo, Oryza sativa
Summary of the method: (§2)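 Read-out is a visual response score from 0 (no effect) to 10 (complete control), assigned by comparison with untreated controls. Treatment was applied at the 2-leaf stage, and plants stayed in the greenhouse for twelve to sixteen days before scoring.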

wild oat = experiment: Test B pre/postemergence wild oat; type: in vivo, Avena fatua; conditions: for Plant response rating, Wild oats: Rate 250 g/ha
Summary of the method: as §1

bedstraw = experiment: Test B pre/postemergence bedstraw; type: in vivo, Galium aparine
Summary of the method: as §1

crabgrass = experiment: Test B pre/postemergence crabgrass; type: in vivo, Digitaria sanguinalis
Summary of the method: as §1

pigweed = experiment: Test B pre/postemergence pigweed; type: in vivo, Amaranthus retroflexus
Summary of the method: as §1

sugar beet = experiment: Test B pre/postemergence sugar beet; type: in vivo, Beta vulgaris; conditions: for Plant response rating, Sugarbeets: Rate 250 g/ha
Summary of the method: as §1

giant foxtail = experiment: Test B pre/postemergence giant foxtail; type: in vivo, Setaria faberii
Summary of the method: as §1

surinam grass = experiment: Test B pre/postemergence surinam grass; type: in vivo, Brachiaria decumbens
Summary of the method: as §1

corn = experiment: Test B pre/postemergence corn; type: in vivo, Zea mays
Summary of the method: as §1

morningglory = experiment: Test B pre/postemergence morningglory; type: in vivo, Ipomoea hederacea
Summary of the method: as §1

purple nutsedge = experiment: Test B pre/postemergence purple nutsedge; type: in vivo, Cyperus rotundus
Summary of the method: as §1

bamyardgrass = experiment: Test B flood test barnyardgrass; type: in vivo, Echinochloa crus-galli
Summary of the method: as §2

blackgrass = experiment: Test B pre/postemergence blackgrass; type: in vivo, Alopecurus myosuroides
Summary of the method: as §1

wheat = experiment: Test B pre/postemergence wheat; type: in vivo, Triticum aestivum; conditions: for Plant response rating, Wheat: Rate 250 g/ha
Summary of the method: as §1

smallflower flatsedge = experiment: Test B flood test smallflower flatsedge; type: in vivo, Cyperus difformis
Summary of the method: as §2

[1] = Postemergence, Rate 125 g/ha, scale of 0 to 10 where 0 is no effect and 10 is complete control
[2] = Postemergence, Rate 250 g/ha, scale 0 to 10, 0 no effect, 10 complete control
[3] = Preemergence, Rate 62 g/ha, scale 0 to 10 (0 no effect, 10 complete control)
[4] = Preemergence, Rate 125 g/ha, scale 0 to 10 (0 no effect, 10 complete control)
[5] = Preemergence, Rate 250 g/ha, scale of 0 to 10 where 0 is no effect and 10 is complete control
[6] = Preemergence, Rate 500 g/ha, scale 0 to 10 (0 no effect, 10 complete control)
[7] = Rate 62 g/ha, Postemergence, scale of 0 to 10 where 0 is no effect and 10 is complete control
[8] = Rate 500 g/ha, Postemergence, scale 0 to 10, 0 no effect, 10 complete control
[9] = Postemergence (flood test species), Rate 125 g/ha, scale of 0 to 10 where 0 is no effect and 10 is complete control
[10] = Rate 62 g/ha, Postemergence section, flood test species, scale of 0 to 10 where 0 is no effect and 10 is complete control
[11] = Rate 250 g/ha, Postemergence (flood test), scale 0 to 10, 0 is no effect, 10 is complete control
[12] = Rate 250 g/ha, headed Pre-emergence (flood test species), scale 0 to 10 (0 no effect, 10 complete control)
[13] = Rate 500 g/ha, headed Pre-emergence (flood test species), scale 0 to 10 (0 no effect, 10 complete control)
[14] = Rate 500 g/ha, listed under Postemergence (flood test species), scale 0 to 10, 0 no effect, 10 complete control
[15] = Rate 1000 g/ha, Pre-emergence (as headed), scale 0 to 10
[16] = Rate 2000 g/ha, Pre-emergence (as headed), scale 0 to 10
[17] = Preemergence, Rate 125 g/ha, 0 is no effect, 10 is complete control
[18] = Preemergence, scale of 0 to 10 where 0 is no effect and 10 is complete control
[19] = Postemergence, scale 0 to 10, 0 is no effect, 10 is complete control
[20] = Postemergence, Rate 62 g/ha, scale 0 to 10, 0 is no effect, 10 is complete control
[21] = Rate 125 g/ha, Postemergence, scale 0 to 10, 0 no effect, 10 complete control

With C=CCn1c(=O)on(C(=O)N(c2ccc(Cl)cc2)C(C)C)c1=O [Compound 105] the “Rape plant response rating” value (rape; [1]) was 0, the “Rape plant response rating” value (rape; [2]) was 0 and the “Rape plant response rating” value (rape; [3]) was 0. The “Plant response rating, Rape” value (rape; [4]) was 1, the “Plant response rating, Rape” value (rape; [5]) was 4 and the “Rape plant response rating” value (rape; [6]) was 6. The “Rape plant response rating” value (rape; [7]) was 0, the “Rape plant response rating” value (rape; [8]) was 2 and the “Rice plant response rating” value (rice; [9]) was 0. For the same compound, the “Rice plant response rating” value (rice; [10]) was 0, the “Plant response rating, Rice” value (rice; [11]) was 0 and the “Rice plant response rating” value (rice; [12]) was 0. For the same compound, the “Plant response rating, Rice” value (rice; [13]) was 0, the “Rice plant response rating” value (rice; [14]) was 0 and the “Rice plant response rating” value (rice; [15]) was 0. For the same compound, the “Rice plant response rating” value (rice; [16]) was 0, the “Wild oats plant response rating” value (wild oat; [1]) was 0 and the “Wild oats plant response rating” value (wild oat; [3]) was 2. For the same compound, the “Wild oats plant response rating (0 to 10 scale)” value (wild oat; [17]) was 3, the “Plant response rating, Wild oats” value (wild oat; [18]) was 3 and the “Wild oats plant response rating” value (wild oat; [6]) was 9. The “Wild oats plant response rating” value (wild oat; [7]) was 0, the “Plant response rating, Wild oats” value (wild oat; [19]) was 2 and the “Wild oats plant response rating” value (wild oat; [8]) was 4. For the same compound, the “Bedstraw plant response rating” value (bedstraw; [20]) was 0, the “Bedstraw plant response rating” value (bedstraw; [2]) was 2 and the “Bedstraw plant response rating” value (bedstraw; [3]) was 0. For the same compound, the “Plant response rating, Bedstraw” value (bedstraw; [4]) was 0, the “Plant response rating, Bedstraw” value (bedstraw; [5]) was 0 and the “Bedstraw plant response rating” value (bedstraw; [6]) was 5. For the same compound, the “Bedstraw plant response rating” value (bedstraw; [21]) was 0, the “Bedstraw plant response rating” value (bedstraw; [8]) was 3 and the “Crabgrass plant response rating” value (crabgrass; [1]) was 7. The “Crabgrass plant response rating” value (crabgrass; [2]) was 7, the “Crabgrass plant response rating” value (crabgrass; [3]) was 2 and the “Plant response rating, Crabgrass” value (crabgrass; [4]) was 8. The “Plant response rating, Crabgrass” value (crabgrass; [5]) was 8, the “Crabgrass plant response rating” value (crabgrass; [6]) was 9 and the “Crabgrass plant response rating” value (crabgrass; [8]) was 9. For the same compound, the “Redroot pigweed plant response rating” value (pigweed; [1]) was 0, the “Redroot pigweed plant response rating” value (pigweed; [3]) was 0 and the “Plant response rating, Redroot pigweed” value (pigweed; [4]) was 3. For the same compound, the “Plant response rating, Redroot pigweed” value (pigweed; [5]) was 9, the “Redroot pigweed plant response rating” value (pigweed; [6]) was 10 and the “Redroot pigweed plant response rating” value (pigweed; [7]) was 0. The “Plant response rating, Redroot pigweed” value (pigweed; Rate 250 g/ha, Postemergence, scale 0 to 10, 0 is no effect, 10 is complete control) was 0, the “Redroot pigweed plant response rating” value (pigweed; [8]) was 3 and the “Sugarbeets plant response rating” value (sugar beet; [1]) was 0. The “Sugarbeets plant response rating” value (sugar beet; [3]) was 0, the “Sugarbeets plant response rating (0 to 10 scale)” value (sugar beet; [17]) was 1 and the “Plant response rating, Sugarbeets” value (sugar beet; [18]) was 4. For the same compound, the “Sugarbeets plant response rating” value (sugar beet; [6]) was 9, the “Sugarbeets plant response rating” value (sugar beet; [7]) was 0 and the “Plant response rating, Sugarbeets” value (sugar beet; [19]) was 0. The “Sugarbeets plant response rating” value (sugar beet; [8]) was 0, the “Giant foxtail plant response rating” value (giant foxtail; [1]) was 3 and the “Giant foxtail plant response rating” value (giant foxtail; [2]) was 7. The “Giant foxtail plant response rating” value (giant foxtail; [3]) was 10, the “Plant response rating, Giant foxtail” value (giant foxtail; [4]) was 10 and the “Plant response rating, Giant foxtail” value (giant foxtail; [5]) was 10. For the same compound, the “Giant foxtail plant response rating” value (giant foxtail; [6]) was 10, the “Giant foxtail plant response rating” value (giant foxtail; [7]) was 2 and the “Giant foxtail plant response rating” value (giant foxtail; [8]) was 8. The “B. signalgrass plant response rating” value (surinam grass; [20]) was 0, the “B. signalgrass plant response rating” value (surinam grass; [2]) was 3 and the “B. signalgrass plant response rating” value (surinam grass; [3]) was 0. The “Plant response rating, B. signalgrass” value (surinam grass; [4]) was 1, the “Plant response rating, B. signalgrass” value (surinam grass; [5]) was 5 and the “B. signalgrass plant response rating” value (surinam grass; [6]) was 10. The “B. signalgrass plant response rating” value (surinam grass; [21]) was 2, the “B. signalgrass plant response rating” value (surinam grass; Rate 500 g/ha, Postemergence, scale of 0 to 10 where 0 is no effect and 10 is complete control) was 3 and the “Corn plant response rating” value (corn; [1]) was 0. The “Corn plant response rating” value (corn; [2]) was 0, the “Corn plant response rating” value (corn; [3]) was 0 and the “Plant response rating, Corn” value (corn; [4]) was 0. The “Plant response rating, Corn” value (corn; [5]) was 2, the “Corn plant response rating” value (corn; [6]) was 3 and the “Corn plant response rating” value (corn; [7]) was 0. The “Corn plant response rating” value (corn; [8]) was 2, the “Morningglory plant response rating” value (morningglory; [1]) was 2 and the “Morningglory plant response rating” value (morningglory; [2]) was 3. For the same compound, the “Morningglory plant response rating” value (morningglory; [3]) was 0, the “Plant response rating, Morningglory” value (morningglory; [4]) was 0 and the “Plant response rating, Morningglory” value (morningglory; [5]) was 0. For the same compound, the “Morningglory plant response rating” value (morningglory; [6]) was 0, the “Morningglory plant response rating” value (morningglory; [8]) was 4 and the “Nutsedge plant response rating” value (purple nutsedge; [1]) was 0. The “Nutsedge plant response rating” value (purple nutsedge; [2]) was 0, the “Nutsedge plant response rating” value (purple nutsedge; [3]) was 0 and the “Plant response rating, Nutsedge” value (purple nutsedge; [4]) was 0. For the same compound, the “Plant response rating, Nutsedge” value (purple nutsedge; [5]) was 0, the “Nutsedge plant response rating” value (purple nutsedge; [6]) was 0 and the “Nutsedge plant response rating” value (purple nutsedge; [7]) was 0. For the same compound, the “Nutsedge plant response rating” value (purple nutsedge; [8]) was 2, the “Barnyardgrass plant response rating” value (bamyardgrass; [20]) was 0 and the “Barnyardgrass plant response rating” value (bamyardgrass; Rate 125 g/ha, Postemergence section (flood test species), scale 0 to 10, 0 no effect, 10 complete control) was 0. The “Barnyardgrass plant response rating” value (bamyardgrass; [12]) was 0, the “Plant response rating, Barnyardgrass” value (bamyardgrass; [13]) was 0 and the “Barnyardgrass plant response rating” value (bamyardgrass; [14]) was 0. For the same compound, the “Barnyardgrass plant response rating” value (bamyardgrass; [15]) was 0, the “Barnyardgrass plant response rating” value (bamyardgrass; Rate 2000 g/ha, Pre-emergence (as headed), scale 0 to 10, 0 no effect, 10 complete control) was 0 and the “Barnyardgrass plant response rating” value (bamyardgrass; flood test, listed under Postemergence, Rate 250 g/ha, scale 0 to 10, 0 no effect, 10 complete control) was 0. The “Blackgrass plant response rating” value (blackgrass; [1]) was 6, the “Blackgrass plant response rating” value (blackgrass; [2]) was 7 and the “Blackgrass plant response rating” value (blackgrass; [3]) was 5. The “Plant response rating, Blackgrass” value (blackgrass; [4]) was 7, the “Plant response rating, Blackgrass” value (blackgrass; [5]) was 8 and the “Blackgrass plant response rating” value (blackgrass; [6]) was 10. For the same compound, the “Blackgrass plant response rating” value (blackgrass; [7]) was 2, the “Blackgrass plant response rating” value (blackgrass; [8]) was 8 and the “Wheat plant response rating” value (wheat; [1]) was 0. For the same compound, the “Wheat plant response rating” value (wheat; [3]) was 0, the “Wheat plant response rating (0 to 10 scale)” value (wheat; [17]) was 0 and the “Plant response rating, Wheat” value (wheat; [18]) was 0. The “Wheat plant response rating” value (wheat; [6]) was 2, the “Wheat plant response rating” value (wheat; [7]) was 0 and the “Plant response rating, Wheat” value (wheat; [19]) was 0. For the same compound, the “Wheat plant response rating” value (wheat; [8]) was 2, the “S. Flatsedge plant response rating” value (smallflower flatsedge; [9]) was 0 and the “S. Flatsedge plant response rating” value (smallflower flatsedge; Pre-emergence, Rate 1000 g/ha, scale 0 to 10 (0 no effect, 10 complete control)) was 0. For the same compound, the “S. Flatsedge plant response rating” value (smallflower flatsedge; [10]) was 0, the “Plant response rating, S. Flatsedge” value (smallflower flatsedge; [11]) was 0 and the “S. Flatsedge plant response rating” value (smallflower flatsedge; [12]) was 0. For the same compound, the “Plant response rating, S. Flatsedge” value (smallflower flatsedge; [13]) was 0, the “S. Flatsedge plant response rating” value (smallflower flatsedge; [14]) was 0 and the “S. Flatsedge plant response rating” value (smallflower flatsedge; [16]) was 0.
